The target in data set [1] is Adrenergic receptor alpha-1 (Rattus norvegicus) (UniProt P15823+P23944+P43140). As to the kind of experiment: Displacement of [3H]prazosin from rat brain alpha1-adrenoceptor at 10 uM incubated for 60 mins by radiometric based scintillation counter assay relative to control. The data set is classed as tissue-based. For orientation: In a radioligand displacement assay an active substance lowers the binding of a labelled ligand.

Data set [2] concerns the target D(3) dopamine receptor (Homo sapiens) (UniProt P35462). Briefly: Displacement of [3H]methyl-spiperone from human recombinant dopamine D3 receptor at 10 uM incubated for 60 mins by radiometric based scintillation counter assay relative to control.
Data set [3] deals with Tumor necrosis factor receptor superfamily member 1A (Homo sapiens) (UniProt P19438). Briefly: Displacement of [125I]TNF-alpha from human tumor necrosis factor-alpha at 10 uM incubated for 120 mins by radiometric based scintillation counter assay relative to control.
Data set [4] deals with Sodium-dependent noradrenaline transporter (Homo sapiens) (UniProt P23975). As to the kind of experiment: Inhibition of human norepinephrine expressed in CHO cells at 10 uM incubated for 180 mins by radiometric based scintillation counter assay relative to control. It is filed as cell-based.
For data set [5], the target named is 5-hydroxytryptamine receptor 2C (Homo sapiens) (UniProt P28335). As to the kind of experiment: Displacement of [3H]mesulergine from human recombinant 5-Hydroxytryptamine 2C at 10 uM incubated for 120 mins by radiometric based scintillation counter assay relative to control.
Data set [6] concerns the target T1, Endothelin-1 receptor (Rattus norvegicus, UniProt P26684).
T1 sequence (P26684 whole entry): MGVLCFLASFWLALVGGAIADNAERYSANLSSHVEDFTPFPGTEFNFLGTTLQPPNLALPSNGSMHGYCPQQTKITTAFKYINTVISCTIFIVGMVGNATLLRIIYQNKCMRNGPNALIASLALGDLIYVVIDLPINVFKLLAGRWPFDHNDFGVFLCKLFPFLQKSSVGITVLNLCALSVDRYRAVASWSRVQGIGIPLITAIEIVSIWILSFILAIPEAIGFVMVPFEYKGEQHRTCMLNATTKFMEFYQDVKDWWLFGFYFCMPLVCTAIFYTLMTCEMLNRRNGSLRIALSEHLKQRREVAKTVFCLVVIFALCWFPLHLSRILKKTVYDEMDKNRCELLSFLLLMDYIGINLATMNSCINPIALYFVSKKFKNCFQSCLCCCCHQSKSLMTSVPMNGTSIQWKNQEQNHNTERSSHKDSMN
As to the kind of experiment: Antagonist activity to ETA receptor in Sprague-Dawley rat aorta assessed as induction of vessel ring contraction preincubated for 15 mins. As to conditions: read-out: pA2 (converted). It is filed as functional, tissue-based.

Data set [7] concerns the target T2, Endothelin-1 receptor (Homo sapiens, UniProt P25101).
T2 sequence (P25101 whole entry): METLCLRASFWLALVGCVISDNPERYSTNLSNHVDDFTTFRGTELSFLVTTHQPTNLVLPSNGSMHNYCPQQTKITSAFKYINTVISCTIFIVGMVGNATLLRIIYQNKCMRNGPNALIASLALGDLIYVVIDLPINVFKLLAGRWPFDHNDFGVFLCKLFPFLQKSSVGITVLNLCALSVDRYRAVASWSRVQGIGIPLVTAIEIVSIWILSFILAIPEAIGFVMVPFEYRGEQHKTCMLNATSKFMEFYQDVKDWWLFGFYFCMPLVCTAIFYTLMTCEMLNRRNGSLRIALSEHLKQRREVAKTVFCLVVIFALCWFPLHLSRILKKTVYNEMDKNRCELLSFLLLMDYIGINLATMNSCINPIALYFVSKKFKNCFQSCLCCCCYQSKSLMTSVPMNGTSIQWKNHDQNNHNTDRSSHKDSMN
Briefly: Displacement of [125I]endhothelin-1 from human ETA receptor stably expressed in CHO cells Membrane at 25 degC incubated for 3 hrs by radioligand competition binding assay. The data set is classed as cell membranes.

The nature of data set [8]: Half life in Sprague-Dawley rat at 10 mg/kg, po administered for 12 hrs by HPLC analysis. It is filed as ADME, organism-based. As to conditions: in vivo.
For the next data set, the species on record is Rattus norvegicus. Briefly: Displacement of [3H]GABA from rat brain GABA receptor at 10 uM incubated for 60 mins by radiometric based scintillation counter assay relative to control. The data set is classed as tissue-based.
For data set [9], the target named is Neuropeptide Y receptor type 2 (Homo sapiens) (UniProt P49146). Briefly: Displacement of [125I]peptide YY from human recombinant Y2 receptor at 10 uM incubated for 60 mins by radiometric based scintillation counter assay relative to control.
Data set [10] deals with Type-2 angiotensin II receptor (Homo sapiens) (UniProt P50052). Briefly: Displacement of [125I]CGP 42112A from human recombinant angiotensin AT2 receptor at 10 uM incubated for 240 mins by radiometric based scintillation counter assay relative to control.
The target of data set [11] is Prostacyclin receptor (Homo sapiens) (UniProt P43119). Briefly: Displacement of [3H]iloprost from human recombinant Prostaglandin I2 receptor at 10 uM incubated for 60 mins by radiometric based scintillation counter assay relative to control.
Data set [12] can be described thus: Volume of distribution at steady state during terminal phase in Sprague-Dawley rat at 5 mg/kg, iv administered for 12 hrs by reverse phase HPLC-UV analysis. It is filed as ADME, organism-based. As to conditions: in vivo, read-out: Vbeta.
The target in data set [13] is T3, Endothelin receptor type B (Homo sapiens, UniProt P24530).
T3 sequence (P24530 whole entry): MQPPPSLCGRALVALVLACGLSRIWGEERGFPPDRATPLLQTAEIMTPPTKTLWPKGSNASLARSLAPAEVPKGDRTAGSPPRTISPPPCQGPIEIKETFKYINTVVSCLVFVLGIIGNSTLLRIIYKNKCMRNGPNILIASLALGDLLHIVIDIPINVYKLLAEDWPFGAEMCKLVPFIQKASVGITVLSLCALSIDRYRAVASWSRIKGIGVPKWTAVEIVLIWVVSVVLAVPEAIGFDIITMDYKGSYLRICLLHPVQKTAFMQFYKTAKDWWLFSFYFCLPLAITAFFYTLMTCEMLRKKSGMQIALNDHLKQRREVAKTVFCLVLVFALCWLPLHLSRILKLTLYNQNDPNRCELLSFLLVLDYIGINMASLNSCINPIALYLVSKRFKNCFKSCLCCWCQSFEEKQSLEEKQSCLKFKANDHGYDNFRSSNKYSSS
As to the kind of experiment: Displacement of [125I]endhothelin-3 from human ETB receptor stably expressed in CHO cells Membrane at 25 degC incubated for 3 hrs by radioligand competition binding assay. The data set is classed as cell membranes.

For data set [14], the target named is T4, Endothelin-1 receptor (Homo sapiens) (UniProt P25101).
T4 sequence (whole entry): T2 sequence (P25101 whole entry)
Briefly: Displacement of [125I]endothelin-1 from human recombinant endothelin ETA receptor at 10 uM incubated for 120 mins by radiometric based scintillation counter assay relative to control. As to conditions: filed as antagonist.

Data set [15] addresses Vasoactive intestinal polypeptide receptor 1 (Homo sapiens) (UniProt P32241). Briefly: Displacement of [125I]VIP from human recombinant Vasoactive intestinal peptide receptor at 10 uM incubated for 60 mins by radiometric based scintillation counter assay relative to control.
Data set [16] concerns the target Melatonin receptor type 1A (Homo sapiens) (UniProt P48039). As to the kind of experiment: Displacement of [125I]2-iodomelatonin from human recombinant melatonin ML1 receptor at 10 uM incubated for 240 mins by radiometric based scintillation counter assay relative to control.
A further data set is filed under the species Mus musculus. Briefly: Displacement of [125I]Tyr11-somatostatin-14 from mouse Somatostatin receptor at 10 uM incubated for 60 mins by radiometric based scintillation counter assay relative to control.
The test system of data set [17] is Glutamate receptor ionotropic NMDA (PCP site). As to the kind of experiment: Inhibition of PCP receptor (unknown origin) at 10 uM by radioligand binding assay relative to control. As to conditions: Homo sapiens.

One compound from ChEMBL document CHEMBL5678795 (Eur J Pharmacol, 1999) can be followed below.

Where only a bound is given, the exact number is not on record here.

Sodium-dependent noradrenaline transporter (Homo sapiens), sequence (P23975 whole entry): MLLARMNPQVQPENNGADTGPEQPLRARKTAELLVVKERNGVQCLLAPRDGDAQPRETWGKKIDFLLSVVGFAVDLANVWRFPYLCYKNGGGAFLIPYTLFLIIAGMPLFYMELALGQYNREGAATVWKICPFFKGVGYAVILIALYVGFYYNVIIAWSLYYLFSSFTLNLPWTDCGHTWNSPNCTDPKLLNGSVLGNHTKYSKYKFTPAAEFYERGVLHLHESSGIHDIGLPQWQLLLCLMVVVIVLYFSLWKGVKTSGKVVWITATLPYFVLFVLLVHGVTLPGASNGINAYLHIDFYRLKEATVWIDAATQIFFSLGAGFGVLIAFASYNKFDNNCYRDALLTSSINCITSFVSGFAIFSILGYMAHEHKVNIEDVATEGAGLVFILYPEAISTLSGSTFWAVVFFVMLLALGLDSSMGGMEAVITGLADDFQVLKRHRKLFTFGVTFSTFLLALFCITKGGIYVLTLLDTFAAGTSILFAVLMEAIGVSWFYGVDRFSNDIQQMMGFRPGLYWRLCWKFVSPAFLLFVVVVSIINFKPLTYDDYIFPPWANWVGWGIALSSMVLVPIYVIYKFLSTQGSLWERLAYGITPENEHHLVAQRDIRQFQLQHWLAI
D(3) dopamine receptor (Homo sapiens), sequence (P35462 whole entry): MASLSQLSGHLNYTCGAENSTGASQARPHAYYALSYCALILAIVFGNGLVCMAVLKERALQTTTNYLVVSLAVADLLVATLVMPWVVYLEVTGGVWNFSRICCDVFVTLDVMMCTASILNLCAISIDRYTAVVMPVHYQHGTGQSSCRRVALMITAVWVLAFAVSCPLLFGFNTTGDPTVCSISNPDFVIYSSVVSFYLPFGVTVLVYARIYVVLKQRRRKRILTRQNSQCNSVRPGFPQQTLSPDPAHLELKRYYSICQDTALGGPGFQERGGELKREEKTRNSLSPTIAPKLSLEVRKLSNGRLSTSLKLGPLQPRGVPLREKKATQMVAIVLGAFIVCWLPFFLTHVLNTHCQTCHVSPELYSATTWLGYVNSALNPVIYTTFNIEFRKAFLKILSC
Melatonin receptor type 1A (Homo sapiens), sequence (P48039 whole entry): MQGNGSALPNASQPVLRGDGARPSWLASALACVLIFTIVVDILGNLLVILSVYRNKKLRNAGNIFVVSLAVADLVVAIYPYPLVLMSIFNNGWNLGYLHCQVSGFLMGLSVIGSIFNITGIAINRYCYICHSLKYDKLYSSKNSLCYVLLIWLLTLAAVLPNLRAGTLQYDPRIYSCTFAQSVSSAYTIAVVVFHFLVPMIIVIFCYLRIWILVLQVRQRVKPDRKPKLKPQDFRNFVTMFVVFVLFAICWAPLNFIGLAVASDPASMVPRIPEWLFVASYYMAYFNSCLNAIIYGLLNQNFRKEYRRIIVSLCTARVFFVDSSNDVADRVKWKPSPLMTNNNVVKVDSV
Type-2 angiotensin II receptor (Homo sapiens), sequence (P50052 whole entry): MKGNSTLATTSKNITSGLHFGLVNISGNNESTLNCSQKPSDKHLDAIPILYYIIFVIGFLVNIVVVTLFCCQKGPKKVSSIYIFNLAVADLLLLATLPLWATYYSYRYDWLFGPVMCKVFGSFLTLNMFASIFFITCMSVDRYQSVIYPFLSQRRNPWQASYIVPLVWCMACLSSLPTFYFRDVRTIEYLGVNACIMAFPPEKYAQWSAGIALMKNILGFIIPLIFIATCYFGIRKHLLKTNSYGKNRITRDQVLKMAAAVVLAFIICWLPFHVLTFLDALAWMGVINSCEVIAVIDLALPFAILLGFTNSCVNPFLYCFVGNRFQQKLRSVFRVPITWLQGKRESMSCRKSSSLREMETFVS
Neuropeptide Y receptor type 2 (Homo sapiens), sequence (P49146 whole entry): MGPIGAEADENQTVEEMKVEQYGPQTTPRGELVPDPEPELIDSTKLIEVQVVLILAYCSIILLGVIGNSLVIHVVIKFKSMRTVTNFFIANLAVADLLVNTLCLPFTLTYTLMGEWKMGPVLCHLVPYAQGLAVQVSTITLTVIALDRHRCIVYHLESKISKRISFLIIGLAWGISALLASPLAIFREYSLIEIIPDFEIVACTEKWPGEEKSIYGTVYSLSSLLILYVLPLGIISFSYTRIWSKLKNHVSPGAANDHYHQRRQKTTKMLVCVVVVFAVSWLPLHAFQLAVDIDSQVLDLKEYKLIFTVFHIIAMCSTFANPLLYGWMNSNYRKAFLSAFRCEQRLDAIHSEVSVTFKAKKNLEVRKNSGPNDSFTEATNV
Vasoactive intestinal polypeptide receptor 1 (Homo sapiens), sequence (P32241 whole entry): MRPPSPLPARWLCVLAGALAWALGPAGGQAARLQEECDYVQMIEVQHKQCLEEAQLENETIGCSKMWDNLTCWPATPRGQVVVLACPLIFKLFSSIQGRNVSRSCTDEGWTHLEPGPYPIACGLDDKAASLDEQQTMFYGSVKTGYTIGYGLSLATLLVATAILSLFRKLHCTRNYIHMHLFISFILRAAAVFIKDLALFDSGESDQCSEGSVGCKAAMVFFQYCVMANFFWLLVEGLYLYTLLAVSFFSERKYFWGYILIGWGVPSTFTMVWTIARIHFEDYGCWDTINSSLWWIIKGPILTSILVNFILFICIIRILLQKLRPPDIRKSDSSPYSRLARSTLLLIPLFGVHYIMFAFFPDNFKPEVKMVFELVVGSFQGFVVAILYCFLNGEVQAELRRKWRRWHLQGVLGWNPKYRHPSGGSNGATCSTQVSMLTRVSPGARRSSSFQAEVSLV
Prostacyclin receptor (Homo sapiens), sequence (P43119 whole entry): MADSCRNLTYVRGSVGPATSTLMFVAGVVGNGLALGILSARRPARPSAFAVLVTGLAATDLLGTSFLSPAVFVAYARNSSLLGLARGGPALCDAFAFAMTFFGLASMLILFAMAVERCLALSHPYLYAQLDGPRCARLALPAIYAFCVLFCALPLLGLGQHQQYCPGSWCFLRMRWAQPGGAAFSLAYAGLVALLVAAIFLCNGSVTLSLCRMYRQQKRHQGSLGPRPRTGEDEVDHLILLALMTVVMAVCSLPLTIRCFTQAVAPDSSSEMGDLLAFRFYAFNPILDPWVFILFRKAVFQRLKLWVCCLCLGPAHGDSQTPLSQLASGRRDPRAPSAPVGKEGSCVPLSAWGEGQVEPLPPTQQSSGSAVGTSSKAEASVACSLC
5-hydroxytryptamine receptor 2C (Homo sapiens), sequence (P28335 whole entry): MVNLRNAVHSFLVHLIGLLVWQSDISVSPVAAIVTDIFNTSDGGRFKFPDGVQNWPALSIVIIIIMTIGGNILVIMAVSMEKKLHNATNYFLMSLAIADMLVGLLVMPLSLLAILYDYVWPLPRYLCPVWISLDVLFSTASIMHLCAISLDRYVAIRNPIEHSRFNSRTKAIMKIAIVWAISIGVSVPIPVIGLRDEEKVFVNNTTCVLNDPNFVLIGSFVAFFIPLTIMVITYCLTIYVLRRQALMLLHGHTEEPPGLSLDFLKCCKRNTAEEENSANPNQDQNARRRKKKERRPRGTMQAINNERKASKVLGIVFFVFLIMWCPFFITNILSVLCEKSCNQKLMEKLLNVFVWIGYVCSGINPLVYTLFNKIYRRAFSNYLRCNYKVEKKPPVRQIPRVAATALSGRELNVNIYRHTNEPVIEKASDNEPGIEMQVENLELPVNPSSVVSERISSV
Tumor necrosis factor receptor superfamily member 1A (Homo sapiens), sequence (P19438 whole entry): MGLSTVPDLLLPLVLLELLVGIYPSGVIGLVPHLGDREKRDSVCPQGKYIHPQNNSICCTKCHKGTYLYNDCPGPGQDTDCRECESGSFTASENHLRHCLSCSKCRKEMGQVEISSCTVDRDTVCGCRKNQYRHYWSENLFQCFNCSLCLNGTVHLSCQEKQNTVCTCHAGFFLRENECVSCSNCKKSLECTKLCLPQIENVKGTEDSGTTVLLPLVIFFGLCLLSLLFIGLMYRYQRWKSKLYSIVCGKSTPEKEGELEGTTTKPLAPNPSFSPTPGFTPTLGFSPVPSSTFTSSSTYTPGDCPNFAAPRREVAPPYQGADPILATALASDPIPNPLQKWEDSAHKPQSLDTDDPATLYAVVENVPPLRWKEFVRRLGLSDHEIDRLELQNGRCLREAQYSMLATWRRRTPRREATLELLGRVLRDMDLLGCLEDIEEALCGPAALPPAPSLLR

Broadly, the inhibition is how much of the control response was suppressed. The IC50 is the concentration needed to halve the response being measured. The term half-life denotes the time needed for the level to fall by half in the phase considered. Read a high half-life as slow loss. Take `CCCCN(CCCC)C(=O)CN1[C@H](c2cc(OC)c3c(c2)OCO3)C[C@@H](C(=O)O)[C@@H]1CC(C)(C)CCC`: the inhibition (in data set [1]; in [2]; in data set [3]; in data set [4]; in [5]; in the data set filed under Rattus norvegicus) was less than 10% throughout. In addition, the inhibition in [9] was less than 10%; in data set [10], less than 10%; in data set [11], 15%; in [14] it was 98%; in data set [15], less than 10%; in [16], 12%. Moreover, the inhibition (in the data set filed under Mus musculus; in [17]) was less than 10% in each case. In addition, on Endothelin-1 receptor [6], the Kb was 5.13 nM. Further, the IC50 on Endothelin-1 receptor [7] turned out to be 0.49 nM; in data set [13], 15400 nM. The half-life in data set [8] was 2.5 h. Besides, in [12], the Vd came to 3.7 L/kg.
